# Test results from publication PMC3914206.
# Legend:
# Assay type in all cases: binding
# panel of 442 kinases [1] = biological target: T1, panel of 442 kinases (Homo sapiens, UniProt Q9BX84); settings: kinase TRPM6; compound concentration 10 µM
# T1 construct: purchased KINOMEscan
# From the text: (§1) We assessed the selectivity of members of this scaffold using the KINOMEscan methodology across a near comprehensive panel of 442 kinases [[18,27]].
# panel of 442 kinases [2] = biological target: T2, panel of 442 kinases (Homo sapiens, UniProt Q9BXA7); settings: kinase TSSK1B; compound concentration 10 µM
# T2 construct: purchased KINOMEscan
# T2 sequence (Q9BXA7 1-367): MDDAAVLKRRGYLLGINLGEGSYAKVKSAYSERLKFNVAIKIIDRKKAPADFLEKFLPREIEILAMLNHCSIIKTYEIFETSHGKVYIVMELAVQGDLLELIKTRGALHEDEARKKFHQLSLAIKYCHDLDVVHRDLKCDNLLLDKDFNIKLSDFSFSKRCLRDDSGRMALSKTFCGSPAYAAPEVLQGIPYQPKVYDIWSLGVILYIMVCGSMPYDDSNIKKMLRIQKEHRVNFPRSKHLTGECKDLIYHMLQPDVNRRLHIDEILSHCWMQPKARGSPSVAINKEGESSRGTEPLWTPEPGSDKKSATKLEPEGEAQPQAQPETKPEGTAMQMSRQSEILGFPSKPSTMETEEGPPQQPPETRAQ
# From the text: as §1
# panel of 442 kinases [3] = biological target: T3, panel of 442 kinases (Homo sapiens, UniProt Q9NY57); settings: kinase YANK2; compound concentration 10 µM
# T3 construct: purchased KINOMEscan
# From the text: as §1
# T3 sequence (Q9NY57 whole entry): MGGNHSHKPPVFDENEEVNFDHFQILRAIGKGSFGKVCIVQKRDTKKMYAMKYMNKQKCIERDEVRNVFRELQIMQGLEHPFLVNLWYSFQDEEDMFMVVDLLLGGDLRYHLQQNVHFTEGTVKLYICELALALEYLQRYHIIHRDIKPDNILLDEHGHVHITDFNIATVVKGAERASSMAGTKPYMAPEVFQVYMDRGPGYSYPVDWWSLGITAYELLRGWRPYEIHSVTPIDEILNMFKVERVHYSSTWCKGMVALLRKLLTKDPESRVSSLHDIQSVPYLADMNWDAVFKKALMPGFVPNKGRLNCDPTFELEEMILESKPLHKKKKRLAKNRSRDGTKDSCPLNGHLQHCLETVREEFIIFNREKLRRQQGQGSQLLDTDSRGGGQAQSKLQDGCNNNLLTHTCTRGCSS
# T1 sequence (Q9BX84 whole entry): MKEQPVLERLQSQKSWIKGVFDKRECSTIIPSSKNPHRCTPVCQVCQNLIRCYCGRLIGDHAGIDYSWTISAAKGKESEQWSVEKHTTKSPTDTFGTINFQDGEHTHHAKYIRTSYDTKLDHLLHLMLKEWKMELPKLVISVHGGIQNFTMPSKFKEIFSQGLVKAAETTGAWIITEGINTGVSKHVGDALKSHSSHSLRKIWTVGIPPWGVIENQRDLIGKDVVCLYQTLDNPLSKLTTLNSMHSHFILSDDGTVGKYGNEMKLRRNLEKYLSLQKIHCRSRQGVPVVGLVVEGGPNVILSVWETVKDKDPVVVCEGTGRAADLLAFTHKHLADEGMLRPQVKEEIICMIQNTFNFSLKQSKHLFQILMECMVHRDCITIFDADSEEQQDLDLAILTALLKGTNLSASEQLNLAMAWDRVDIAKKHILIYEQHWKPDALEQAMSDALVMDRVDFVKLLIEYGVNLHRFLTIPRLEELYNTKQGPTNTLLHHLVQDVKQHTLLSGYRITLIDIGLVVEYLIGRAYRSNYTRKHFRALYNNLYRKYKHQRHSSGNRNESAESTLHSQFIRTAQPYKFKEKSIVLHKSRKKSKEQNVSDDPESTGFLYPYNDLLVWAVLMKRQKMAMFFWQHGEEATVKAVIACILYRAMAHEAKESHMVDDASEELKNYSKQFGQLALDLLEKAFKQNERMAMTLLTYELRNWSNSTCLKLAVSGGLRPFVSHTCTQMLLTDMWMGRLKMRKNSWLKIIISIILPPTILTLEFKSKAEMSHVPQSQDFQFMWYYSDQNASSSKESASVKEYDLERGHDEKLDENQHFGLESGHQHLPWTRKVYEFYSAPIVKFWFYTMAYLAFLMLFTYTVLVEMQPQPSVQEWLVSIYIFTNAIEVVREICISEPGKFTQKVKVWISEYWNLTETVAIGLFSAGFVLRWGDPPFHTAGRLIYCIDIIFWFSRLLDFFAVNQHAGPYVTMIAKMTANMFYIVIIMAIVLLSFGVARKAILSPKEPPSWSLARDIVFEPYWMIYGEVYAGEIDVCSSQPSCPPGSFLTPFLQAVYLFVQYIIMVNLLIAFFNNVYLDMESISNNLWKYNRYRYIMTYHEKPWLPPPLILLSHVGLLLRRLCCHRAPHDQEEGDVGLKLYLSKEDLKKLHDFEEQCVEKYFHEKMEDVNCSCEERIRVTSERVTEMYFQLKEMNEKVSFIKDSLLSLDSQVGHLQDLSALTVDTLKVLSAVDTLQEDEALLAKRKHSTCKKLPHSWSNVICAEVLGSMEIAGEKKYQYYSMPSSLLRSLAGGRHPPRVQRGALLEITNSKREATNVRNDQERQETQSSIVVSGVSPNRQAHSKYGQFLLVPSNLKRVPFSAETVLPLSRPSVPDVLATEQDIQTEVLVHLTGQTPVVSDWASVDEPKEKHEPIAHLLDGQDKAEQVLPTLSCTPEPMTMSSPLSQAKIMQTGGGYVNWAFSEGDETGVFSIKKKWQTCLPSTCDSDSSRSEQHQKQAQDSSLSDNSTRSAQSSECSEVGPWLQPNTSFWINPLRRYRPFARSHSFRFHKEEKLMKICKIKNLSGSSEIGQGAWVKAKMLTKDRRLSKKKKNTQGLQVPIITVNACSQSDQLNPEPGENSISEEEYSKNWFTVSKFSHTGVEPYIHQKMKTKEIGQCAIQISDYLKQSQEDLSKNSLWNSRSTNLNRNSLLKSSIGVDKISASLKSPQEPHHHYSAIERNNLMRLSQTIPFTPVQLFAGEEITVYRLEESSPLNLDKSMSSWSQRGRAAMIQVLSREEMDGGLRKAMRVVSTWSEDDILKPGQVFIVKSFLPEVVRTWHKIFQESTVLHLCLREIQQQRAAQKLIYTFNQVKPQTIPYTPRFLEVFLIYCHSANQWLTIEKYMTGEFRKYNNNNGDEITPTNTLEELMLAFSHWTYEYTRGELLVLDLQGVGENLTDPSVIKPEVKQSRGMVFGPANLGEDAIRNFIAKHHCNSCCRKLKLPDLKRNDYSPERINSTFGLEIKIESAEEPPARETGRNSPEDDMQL
smiles,measurement,setting,value
CCOc1cc(C(=O)N2CCC(N3CCN(C)CC3)CC2)ccc1Nc1ncc2c(n1)N(C1CCCC1)c1ccccc1C(=O)N2C [Compound 26],"% Ctrl, TRPM6",panel of 442 kinases [1],94 % Ctrl
same,"% Ctrl, TSSK1B",panel of 442 kinases [2],100 % Ctrl
same,"% Ctrl, YANK2",panel of 442 kinases [3],100 % Ctrl
"COc1cc(C(=O)N2CCC(N3CCN(C)CC3)CC2)ccc1Nc1ncc2c(n1)N(C1CCCC1)c1ccccc1C(=O)N2C [Compound 25, 11-cyclopentyl-2-((2-methoxy-4-(4-(4-methylpiperazin-1-yl)piperidine-1-carbonyl)phenyl)amino)-5-methyl-5H-benzo[e]pyrimido[5,4-b][1,4]diazepin-6(11H)-one]","% Ctrl, TRPM6",panel of 442 kinases [1],100 % Ctrl
same,"% Ctrl, TSSK1B",panel of 442 kinases [2],90 % Ctrl
same,"% Ctrl, YANK2",panel of 442 kinases [3],100 % Ctrl
COc1cc(C(=O)N2CCC(N3CCN(C)CC3)CC2)ccc1Nc1ncc2c(n1)N1CCc3cccc(c31)C(=O)N2C [Compound 24],"% Ctrl, TRPM6",panel of 442 kinases [1],100 % Ctrl
same,"% Ctrl, TSSK1B",panel of 442 kinases [2],61 % Ctrl
same,"% Ctrl, YANK2",panel of 442 kinases [3],100 % Ctrl
COc1cc(C(=O)N2CCC(N3CCN(C)CC3)CC2)ccc1Nc1ncc2c(n1)N(C)c1ccccc1C(=O)N2C [15 (LRRK2-IN-1)],"% Ctrl, TRPM6",panel of 442 kinases [1],100 % Ctrl
same,"% Ctrl, TSSK1B",panel of 442 kinases [2],60 % Ctrl
same,"% Ctrl, YANK2",panel of 442 kinases [3],100 % Ctrl
